Measured values: ChEMBL document CHEMBL1201862, “PubChem BioAssay data set” (2004)
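A five-concentration, 48-hour dose response in 96-well plates underlies each endpoint, interpolated linearly between surrounding concentrations. GI50 marks 50% less growth.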 The source made the active and inactive calls. No stated cut-off is given here; in the data, active = GI50 up to about 1.1 µM and inactive = higher.

How the values were obtained:
Test in all cases: NCI-60 cell line screen, 48 h
[1] = system: A549
[2] = system: ACHN
[3] = system: CAKI-1
[4] = system: DLD-1
[5] = system: DMS-114
[6] = system: HL-60
[7] = system: HT-29
[8] = system: LOX IMVI
[9] = system: OVCAR-3
[10] = system: SF-268
[11] = system: SK-MEL-28
[12] = system: SNB-19
[13] = system: SNB-78
[14] = system: SR
[15] = system: DU-145
[16] = system: Hs-578T
[17] = system: MCF7
[18] = system: MDA-MB-231
[19] = system: MDA-MB-435
[20] = system: T47D

Measured: GI50

CCc1cccc(CC)c1NC(=O)C(=O)Cc1nc2ccccc2o1
inactive: [1] > 100 µM | [2] > 100 µM | [3] > 100 µM | [4] > 100 µM | [5] > 100 µM | [6] > 100 µM | [7] > 100 µM | [8] > 100 µM | [9] > 100 µM | [10] > 100 µM | [11] > 100 µM | [12] > 100 µM | [13] > 100 µM | [14] > 100 µM

O=C1NC(Cc2ccccc2)C(=O)N2CCCC12 (stereo not given)
inactive: [1] > 100 µM | [2] > 100 µM | [3] > 100 µM | [4] > 100 µM | [5] > 100 µM | [6] > 100 µM | [7] > 100 µM | [8] > 100 µM | [9] > 100 µM | [10] > 100 µM | [11] > 100 µM | [12] > 100 µM | [13] > 100 µM | [14] > 100 µM

Cc1cccc(C)c1NC(=O)C(=O)C1C(=O)NC(=O)NC1=O
inactive: [1] > 100 µM | [2] > 100 µM | [3] > 100 µM | [4] > 100 µM | [5] > 100 µM | [6] > 100 µM | [7] > 100 µM | [8] > 100 µM | [9] > 100 µM | [10] > 100 µM | [11] > 100 µM | [12] > 100 µM | [13] > 100 µM | [14] > 100 µM

COc1cc(/C=C(\C#N)C(=O)c2ccccc2)cc(OC)c1OC
inactive: [1] > 100 µM | [2] > 100 µM | [3] > 100 µM | [4] > 100 µM | [5] > 100 µM | [6] > 100 µM | [7] > 100 µM | [8] > 100 µM | [9] > 100 µM | [10] > 100 µM | [11] > 100 µM | [12] > 100 µM | [13] > 100 µM | [14] > 100 µM

CC(=O)/C(C)=N/NC(=O)c1ccccc1O
inactive: [1] > 10 µM | [2] > 10 µM | [3] > 10 µM | [4] > 10 µM | [5] > 10 µM | [15] > 100 µM | [7] > 10 µM | [16] > 100 µM | [8] > 10 µM | [17] > 100 µM | [18] > 100 µM | [19] > 100 µM | [9] 69.5 µM | [10] > 10 µM | [11] > 10 µM | [12] > 10 µM | [13] > 10 µM | [14] 41.6 µM | [20] > 100 µM
